≈ marks a conversion by molar mass, not a printed value. Blank lines part the entries; values can stand above or below the compound they belong to.
Legend:
Experiment in all cases: ≥ marks a high value that may be exact or a test limit, other limits are often not marked, values filed in µg/mL are converted to µM
[1] = test system: Escherichia coli ATCC 25922
[2] = test system: Bacillus subtilis ATCC 6051
[3] = test system: Escherichia coli NEB5alpha
[4] = test system: Staphylococcus aureus ATCC 29313
[5] = test system: Salmonella enterica subsp. enterica serovar Typhimurium ATCC 14028
[6] = test system: Pseudomonas aeruginosa Pa1-SA2
[7] = test system: Pseudomonas aeruginosa Pa4-SA2
[8] = test system: Pseudomonas aeruginosa ATCC 27853
[9] = test system: Klebsiella pneumoniae ATCC 700603
[10] = test system: Pseudomonas aeruginosa PAO1
[11] = test system: Pseudomonas aeruginosa PA006
[12] = test system: Escherichia coli DH5alpha
[13] = test system: Bacillus subtilis DSM 347
[14] = test system: Franconibacter helveticus DSM 18396
[15] = test system: Kocuria rhizophila DSM 348
[16] = test system: Staphylococcus aureus ATCC 6538
[17] = test system: Pseudomonas aeruginosa ATCC 13388
[18] = test system: Klebsiella pneumoniae ATCC 10031
[19] = test system: Escherichia coli ATCC 11219
Shigella dysenteriae = test system: Shigella dysenteriae
Escherichia coli IS117# = test system: Escherichia coli IS117#
[20] = test system: Staphylococcus aureus IS37#
Escherichia coli IS37# = test system: Escherichia coli IS37#
[21] = test system: Enterobacter cloacae ATCC 13047
[22] = test system: Candida albicans ATCC 2002
[23] = test system: Candida parapsilosis ATCC 22019
[24] = test system: Staphylococcus aureus IS10#
[25] = test system: Pseudomonas aeruginosa CMCCB 1010
[26] = test system: Enterococcus faecalis ATCC 29212
[27] = test system: Candida albicans ATCC 90028
[28] = test system: Staphylococcus aureus ATCC 25923
[29] = test system: Escherichia coli BW25113 ΔwaaG
Escherichia coli BW25113 = test system: Escherichia coli BW25113
[30] = test system: Escherichia coli BW25113 ΔsbmA
[31] = test system: Mycobacterium tuberculosis H37Rv
Streptococcus agalactiae = test system: Streptococcus agalactiae
[32] = test system: Mycobacterium tuberculosis
Candida glabrata = test system: Candida glabrata
Candida albicans = test system: Candida albicans
[33] = test system: Pseudomonas aeruginosa ATCC 9027

SMILES: CC[C@H](C)[C@H](NC(=O)[C@H](CCCCN)NC(=O)CNC(=O)[C@@H](NC(=O)[C@H](C)NC(=O)[C@H](Cc1cnc[nH]1)NC(=O)[C@H](C)NC(=O)[C@@H](NC(=O)[C@H](CC(C)C)NC(=O)[C@H](CCC(N)=O)NC(=O)[C@H](CCCCN)NC(=O)CNC(=O)[C@H](C)NC(=O)[C@H](CC(=O)O)NC(=O)[C@H](CCCCN)NC(=O)[C@@H](NC(=O)[C@@H](NC(=O)[C@H](CC(=O)O)NC(=O)[C@H](Cc1ccccc1)NC(=O)[C@@H](NC(=O)CN)C(C)C)[C@@H](C)CC)[C@@H](C)CC)C(C)C)[C@@H](C)O)C(=O)N[C@@H](C)C(=O)N[C@@H](CCC(=O)O)C(=O)N[C@@H](CCCCN)C(=O)N[C@H](C(N)=O)C(C)C [GVFDIIKDAGKQLVAHATGKIAEKV]
- MIC [1]: > 307 µM
- MIC [4]: ≥ 307 µM
- MIC [5]: > 307 µM
- MIC [6]: ≥ 98.1 µM
- MIC [7]: ≥ 49.1 µM
- MIC [8]: 392 µM (≈ 1020 µg/mL)
- MIC [9]: > 307 µM
- MIC [10]: 196 µM (≈ 512 µg/mL)
- MIC [11]: 6.13 µM (≈ 16 µg/mL)

SMILES: CC[C@H](C)[C@H](NC(=O)CN)C(=O)NCC(=O)N[C@@H](CCCCN)C(=O)N[C@@H](Cc1ccccc1)C(=O)N[C@@H](CC(C)C)C(=O)N[C@@H](Cc1cnc[nH]1)C(=O)N[C@@H](CO)C(=O)N[C@@H](C)C(=O)N[C@@H](CCCCN)C(=O)N[C@@H](CCCCN)C(=O)N[C@@H](Cc1ccccc1)C(=O)NCC(=O)N[C@@H](CCCCN)C(=O)N[C@@H](C)C(=O)N[C@@H](Cc1ccccc1)C(=O)N[C@@H](C)C(=O)NCC(=O)N[C@@H](CCC(=O)O)C(=O)N[C@H](C(=O)N[C@@H](CCSC)C(=O)N[C@@H](CC(N)=O)C(=O)N[C@@H](CO)C(=O)O)[C@@H](C)CC [GIGKFLHSAKKFGKAFAGEIMNS]
- MIC [12]: ≥ 64 µM
- MIC [13]: 8 µM (≈ 19.5 µg/mL)
- MIC [14]: ≥ 64 µM
- MIC [15]: ≥ 64 µM

SMILES: CC[C@H](C)[C@H](NC(=O)CN)C(=O)N[C@@H](Cc1cnc[nH]1)C(=O)N[C@@H](C)C(=O)N[C@H](C(=O)N[C@@H](CC(C)C)C(=O)N[C@@H](CCCCN)C(=O)N[C@@H](Cc1ccc(O)cc1)C(=O)NCC(=O)N[C@@H](CCCCN)C(=O)N1CCC[C@H]1C(=O)N[C@@H](CO)C(N)=O)[C@@H](C)CC [GIHAILKYGKPS]
- MIC [16]: 5 µM (≈ 6.41 µg/mL)
- MIC [5]: > 50 µM
- MIC [17]: ≥ 50 µM
- MIC [18]: 30 µM (≈ 38.5 µg/mL)
- MIC [19]: ≥ 50 µM

SMILES: CC[C@H](C)[C@H](NC(=O)[C@H](CC(C)C)NC(=O)[C@@H]1CCCN1C(=O)[C@H](Cc1ccccc1)NC(=O)[C@@H](N)Cc1ccccc1)C(=O)N[C@@H](C)C(=O)NCC(=O)N[C@@H](CC(C)C)C(=O)N[C@@H](C)C(=O)N[C@@H](C)C(=O)N[C@@H](CCCN=C(N)N)C(=O)N[C@@H](Cc1ccccc1)C(=O)N[C@@H](CC(C)C)C(=O)N1CCC[C@H]1C(=O)N[C@@H](CCCCN)C(=O)N[C@H](C(=O)N[C@@H](Cc1ccccc1)C(=O)N[C@H]1CSSC[C@@H](C(=O)O)NC(=O)[C@H](CCCN=C(N)N)NC(=O)[C@H](CCCCN)NC(=O)[C@H]([C@@H](C)O)NC(=O)[C@H]([C@@H](C)CC)NC(=O)[C@H](CO)NC1=O)[C@@H](C)CC [FFPLIAGLAARFLPKIFCSITKRC]
- MIC [1]: 0.368 µM (≈ 0.999 µg/mL)
- MIC (Shigella dysenteriae): 3.69 µM (≈ 9.99 µg/mL)
- MIC (Escherichia coli IS117#): 3.69 µM (≈ 9.99 µg/mL)
- MIC [20]: 1.84 µM (≈ 5 µg/mL)
- MIC (Escherichia coli IS37#): 0.921 µM (≈ 2.5 µg/mL)
- MIC [21]: 0.921 µM (≈ 2.5 µg/mL)
- MIC [22]: 1.84 µM (≈ 5 µg/mL)
- MIC [23]: 7.37 µM (≈ 20 µg/mL)
- MIC [24]: 3.69 µM (≈ 9.99 µg/mL)
- MIC [8]: 3.69 µM (≈ 9.99 µg/mL)
- MIC [25]: 1.84 µM (≈ 5 µg/mL)
- MIC [9]: 0.921 µM (≈ 2.5 µg/mL)
- MIC [26]: 1.84 µM (≈ 5 µg/mL)
- MIC [27]: 3.69 µM (≈ 9.99 µg/mL)
- MIC [28]: 1.84 µM (≈ 5 µg/mL)

SMILES: CC[C@H](C)[C@H](NC(=O)[C@H](CC(C)C)NC(=O)[C@H](CO)NC(=O)[C@@H]1CCCN1C(=O)[C@@H](NC(=O)[C@H](C)NC(=O)[C@H](CCCCN)NC(=O)[C@H](CCSC)NC(=O)[C@H](C)NC(=O)[C@H](CC(C)C)NC(=O)[C@H](CCCCN)NC(=O)CNC(=O)[C@H](CC(C)C)NC(=O)[C@H](Cc1ccccc1)NC(=O)CNC(=O)[C@H](Cc1c[nH]c2ccccc12)NC(=O)[C@@H](N)Cc1ccccc1)C(C)C)C(=O)NCC(=O)NCC(=O)N[C@@H](CC(N)=O)C(=O)N[C@@H](CCCCN)C(=O)N[C@@H](CO)C(=O)N[C@@H](CO)C(=O)N[C@@H](CO)C(=O)N[C@@H](CCCCN)C(=O)O [FWGFLGKLAMKAVPSLIGGNKSSSK]
- MIC [1]: 24 µM (≈ 63 µg/mL)
- MIC [31]: 21.4 µM (≈ 56.2 µg/mL)
- MIC (Streptococcus agalactiae): 15 µM (≈ 39.4 µg/mL)
- MIC [32]: 30.5 µM (≈ 80 µg/mL)
- MIC (Candida glabrata): ≥ 50 µM
- MIC (Candida albicans): 12.5 µM (≈ 32.8 µg/mL)
- MIC [28]: 10 µM (≈ 26.2 µg/mL)
- MIC [33]: 15 µM (≈ 39.4 µg/mL)

Other lines, results leading:

- MIC [1]: 189 µM (≈ 550 µg/mL)
- MIC [2]: 23.6 µM (≈ 68.8 µg/mL)
- MIC [3]: ≥ 47.2 µM
SMILES: CC[C@H](C)[C@H](NC(=O)[C@@H]1CCCN1C(=O)[C@H](Cc1cnc[nH]1)NC(=O)[C@H](CCCCN)NC(=O)[C@@H]1CCCN1C(=O)[C@@H](N)CCCN=C(N)N)C(=O)N[C@@H](CCCCN)C(=O)N[C@@H](Cc1cnc[nH]1)C(=O)N[C@@H](CCC(N)=O)C(=O)NCC(=O)N[C@@H](CC(C)C)C(=O)N1CCC[C@H]1C(=O)N[C@@H](CCC(N)=O)C(=O)N[C@@H](CCC(=O)O)C(=O)N[C@H](C(=O)N[C@@H](CC(C)C)C(=O)N[C@@H](CC(N)=O)C(=O)N[C@@H](CCC(=O)O)C(=O)N[C@@H](CC(N)=O)C(=O)N[C@@H](CC(C)C)C(=O)N[C@@H](CC(C)C)C(=O)N[C@@H](CCCN=C(N)N)C(=O)N[C@@H](Cc1ccccc1)C(=O)N[C@@H](Cc1ccccc1)C(=O)O)C(C)C [RPKHPIKHQGLPQEVLNENLLRFF]

- MIC [1]: 8 µM (≈ 20.7 µg/mL)
- MIC [29]: 4 µM (≈ 10.3 µg/mL)
- MIC (Escherichia coli BW25113): 8 µM (≈ 20.7 µg/mL)
- MIC [30]: ≥ 32 µM
SMILES: CC[C@H](C)[C@H](N)C(=O)N[C@@H](CCCN=C(N)N)C(=O)N1CCC[C@H]1C(=O)N[C@@H](CCCN=C(N)N)C(=O)N1CCC[C@H]1C(=O)N1CCC[C@H]1C(=O)N[C@@H](CCCN=C(N)N)C(=O)N[C@@H](CC(C)C)C(=O)N1CCC[C@H]1C(=O)N[C@@H](CCCN=C(N)N)C(=O)N1CCC[C@H]1C(=O)N[C@@H](CCCN=C(N)N)C(=O)N1CCC[C@H]1C(=O)N[C@@H](CCCN=C(N)N)C(=O)N1CCC[C@H]1C(=O)N[C@@H](CC(C)C)C(=O)N1CCC[C@H]1C(=O)N[C@@H](Cc1ccc(O)cc1)C(=O)N1CCC[C@H]1C(=O)N[C@@H](CCCN=C(N)N)C(=O)N1CCC[C@H]1C(=O)O [IRPRPPRLPRPRPRPLPYPRP]

Source: DBAASP
